The test system of series [1] is Rand protease. As to the kind of experiment: Effect of inhibitors on protease activity. The format is biochemical, Bacillus subtilis isolate Rand. The settings on record: 5 mM inhibitor, 30 min at 37° C., relative to control. As for the experimental part:
Purified Rand protease was incubated with 5 mM of different inhibitors at 37° C. for 30 min.
All the inhibitors were used at 5 mM final concentration.

Series [2] has as its system Rand protease. In words: Effect of metal ions on protease activity. The format is biochemical, Bacillus subtilis isolate Rand. The settings on record: 5 mM metal ion, 37° C., 30 min; control no ions. As to the method:
Purified Rand protease was treated with 5 mM of various metal ions at 37° C. for […].
The effect of metal ions on protease activity was determined by incubating the protease with different metal ions at 5 mM final concentration. The metal ions used were K^+, Na^+, Mg^2+, Ca^2+, Mg^2+, Fe^2+, Co^2+, Cu^2+, Zn^2+ and […]. The samples were incubated at 37° C. for 30 min. […] The control contained no ions.

Series [3] deals with thermophilic Bacillus strain HS08 protease. The settings on record: cited from earlier work.
Series [4] has as its system protease activity of B. megaterium. The settings on record: presence of Zn2+; cited from earlier work.
In series [5] the test system is Bacillus sp. TKU004 protease. The settings on record: zinc ions; cited from earlier work.
Series [6] has as its system Rand protease. In words: Effect of organic solvents on purified Rand protease activity. The format is biochemical, Bacillus subtilis isolate Rand. The settings on record: 25% (v/v) solvent, 37° C., 150 rpm, 30 min, no solvent = 100%. As to the method: . Three ml of purified Rand protease were incubated with 1 ml of different organic solvents at 37° C. with shaking at 150 rpm for 30 min. The activity of the enzyme without any solvent (none) was taken as 100%.
The effects of organic solvents with various log P on protease activity were determined. […] . The control was done in the absent of organic solvent and assay under the same experimental conditions. The protease was incubated in the presence of 25% (v/v) of organic solvents for 30 min. The incubation was performed at 37° C. in water bath shaker with 150 rpm. The samples were removed and immediately vortex prior to assay the protease activity.

The conditions of series [7]: cited from earlier work.
In series [8] the test system is Rand protease. In words: Effect of organic solvents on stability of crude Rand protease (cell-free supernatant). The format is biochemical, Bacillus subtilis isolate Rand. The settings on record: 25% (v/v) solvent, 55° C., 150 rpm, 30 min, control distilled water. As to the method:
1. […] Three ml aliquots of a cell-free supernatant culture were incubated with 1 ml of different organic solvents at 55° C. with shaking at 150 rpm for 30 min.
Each sample was run in triplicate.
Isolate Rand was cultured aerobically at 50° C. for 24 h in the absence of organic solvents. The culture medium was then centrifuged at 12,000×g and 4° C. for 10 min. The supernatant was filtered with a cellulose acetate membrane filter (pore size 0.22 μm). One mL organic solvent was added to 3.0 mL of the cell-free supernatant and the whole mixture was incubated in shaker 150 rpm at 55° C. for 30 min. The samples were removed and immediately vortex prior to assay at zero time and after incubation period. For control the solvent was replaced by distilled water.

Square brackets hold non-standard residues; d marks the D form. Peptide text beside a SMILES is read from it. * marks the point of attachment. Sta = CC(C)C[C@H](N)[C@@H](O)CC(=O)O; Isovaleryl = CC(C)CC(=O)*

Turning to `O[C@@H](CS)[C@@H](O)CS` (racemic) [DTT, 1,4-Dithio-DL-threitol], the “reduction (inhibition) of protease activity” value (“reduction (inhibition)” for short) in the series with Rand protease [1] worked out at 30%. As for `OCCS` [2-mercaptoethanol, 2-Mercaptoethanol], the “reduction (inhibition)” value with Rand protease [1] was “About 90%”. As for `CC(C)C[C@H](NC(=O)[C@@H](O)[C@H](N)Cc1ccccc1)C(=O)O` [Bestatin, bestatin], the protease activity retained result with Rand protease [1] is listed as “about 95%”.

For `[Ca+2]` [Ca^2+], the “protease activity in the presence of metal ion” value (“protease activity … of metal ion” for short) with Rand protease [2] was “around 89%”. In addition, the “influence on proteolytic activity” value in series [3] (Ca2+ ions) was “did not show any influence”. On to `[Co+2]` [Co^2+], for which the “protease activity … of metal ion” value with Rand protease [2] is recorded as “inhibitory effects”. On to `[Cu+2]` [Cu^2+], for which the “protease activity … of metal ion” value in the series with Rand protease [2] is reported as “inhibitory effects”.

`[Fe+2]` [Fe^2+]: the “protease activity … of metal ion” value in the series on Rand protease [2] is “inhibitory effects”.

As for `[K+]` [K^+], the “protease activity … of metal ion” value in the series on Rand protease [2] is listed as roughly 112%. Consider `[Mg+2]` [Mg^2+], for which the “protease activity … of metal ion” value with Rand protease [2] is on record as “inhibitory effects”.

As for `[Ni+2]` [Ni^2+], the “protease activity … of metal ion” value in the series on Rand protease [2] is “inhibitory effects”. Take `O=S(=O)(F)Cc1ccccc1` [PMSF, phenylmethanesulfonyl fluoride]: the “reduction (inhibition)” value in the series on Rand protease [1] is given as “completely inhibited”. For `CC(C)CC(=O)N[C@H](C(=O)N[C@H](C(=O)N[C@@H](CC(C)C)[C@@H](O)CC(=O)N[C@@H](C)C(=O)N[C@@H](CC(C)C)[C@@H](O)CC(=O)O)C(C)C)C(C)C` [Pepstatin A, pepstatin A] (Isovaleryl-VV[Sta]A[Sta]-OH), the protease activity retained in the series on Rand protease [1] is given as roughly 63%. Turning to `[Zn+2]` [Zn^2+], the relative activity in series [3] (2 mM Zn2+) was 109%. In addition, in series [4], the relative activities is 28%. Besides, the “activity of the apo-enzyme restored, of the original level” value in series [5] is 75%.

In the case of `ClC(Cl)Cl` [chloroform], the “relative activity remaining in organic solvent” value in the series on Rand protease [6] is on record as 18%. Regarding `CCCCCCCCCCCC` [n-dodecane], the “log P” value in series [7] is recorded as 6.0. Take `CCCCCCCCCCCCCC` [n-tetradecane]: in series [7], the log partition coefficient (log P) is 7.6. With `c1ccncc1` [pyridine], the “remaining activity of Rand protease in the presence of organic solvent” value in the series with Rand protease [8] is “no activity was observed”. For the compound `Cc1ccccc1` [toluene], the “remaining activity of Rand protease in the presence of organic solvent” value with Rand protease [8] is reported as 130%; with Rand protease [8] (listed as toluen), “enhanced”.

Broadly, the log P is a log measure of how a compound divides between an organic and an aqueous phase.
